Literature values, collected in the PKSmart pharmacokinetics tables (Seal et al. 2025).
Where a SMILES comes first, the peptide text is derived from it. Bridges are numbered along the chain shown (N, C = ends). [ ]: non-standard residue; d: D form. Mpa = O=C(O)CCS

Experiments:
[1] = Lombardo et al. 2013, J Clin Pharmacol 53:178, doi 10.1177/0091270012440282; conditions: for Vd / clearance: in vivo, iv; for fraction unbound: plasma
[2] = Lombardo, Berellini, Obach 2018, Drug Metab Dispos 46:1466, doi 10.1124/dmd.118.082966; conditions: human; for MRT / Vd / clearance / half-life: in vivo, iv; for fraction unbound: plasma

Molecule | Vd ([1]; rat) | clearance ([1]; rat) | MRT [2] | Vd [2] | clearance [2] | half-life [2] | also measured
NC(=O)C(c1ccccc1)(c1ccccc1)[C@@H]1CCN(CCc2ccc3c(c2)CCO3)C1 | 7 L/kg | 59 mL/min/kg | – | – | – | – | Vd ([1]; dog): 6.8 L/kg; clearance ([1]; dog): 39 mL/min/kg
Cc1nnc(C(C)C)n1C1C[C@H]2CC[C@@H](C1)N2CC[C@H](NC(=O)C1CCC(F)(F)CC1)c1ccccc1 (stereo not given in full) | 2.53 L/kg | 74 mL/min/kg | – | – | – | – | Vd ([1]; dog): 2.32 L/kg; clearance ([1]; dog): 21 mL/min/kg; fraction unbound ([1]; dog): 0.36; fraction unbound ([1]; rat): 0.49
CC(C)(C)[C@]1(O)C[C@@H]2OC(=O)C[C@@]23C(=O)O[C@@H]2OC(=O)C(O)[C@]213 (stereo not given in full) | 10 L/kg | 140 mL/min/kg | – | – | – | – | –
CC(NC(=O)N(CCCl)N=O)C(N)=O (stereo not given) | – | – | – | – | – | – | clearance ([1]; dog): 17.6 mL/min/kg
CC1C(=O)O[C@H]2[C@H](O)[C@@]34[C@H]5C[C@@H](C(C)(C)C)[C@@]36C(O)C(=O)O[C@H]6O[C@@]4(C(=O)O5)[C@@]12O (stereo not given in full) | 3.5 L/kg | 60 mL/min/kg | – | – | – | – | –
CONC(C(=O)N=C1C(=O)N2C(C(=O)[O-])=C(C[N+]34CCC(C(N)=O)(CC3)CC4)CS[C@H]12)c1nsc(N)n1 (stereo not given in full) | – | – | – | – | – | – | Vd ([1]; dog): 0.23 L/kg; clearance ([1]; dog): 3.3 mL/min/kg
O=c1nc[nH]c2c1ncn2[C@H]1CC[C@@H](CO)O1 | 1.3 L/kg | 150 mL/min/kg | – | – | – | – | Vd ([1]; dog): 0.96 L/kg; clearance ([1]; dog): 25.3 mL/min/kg; Vd ([1]; monkey): 1.3 L/kg; clearance ([1]; monkey): 27.2 mL/min/kg
CC(=O)Nc1ccc(O)cc1 | – | – | – | – | – | – | fraction unbound ([1]; rat): 0.27
Cn1c(=O)c2[nH]cnc2n(C)c1=O | – | 2.25 mL/min/kg | – | – | – | – | Vd ([1]; dog): 0.68 L/kg; clearance ([1]; dog): 1.8 mL/min/kg; Vd ([1]; monkey): 0.69 L/kg; clearance ([1]; monkey): 3.8 mL/min/kg
CCC1=NC(=O)C2CSSCC/C=C\[C@H](CC(=O)NC(C(C)C)C(=O)N2)OC(=O)C(C(C)C)NC1=O (stereo not given in full) | 63.8 L/kg | 625 mL/min/kg | – | – | – | – | Vd ([1]; monkey): 4.95 L/kg; clearance ([1]; monkey): 27.9 mL/min/kg
OC(CNCC(O)C1CCc2cc(F)ccc2O1)C1CCc2cc(F)ccc2O1 (stereo not given) | 6.2 L/kg | 49 mL/min/kg | – | – | – | – | fraction unbound ([1]; rat): 0.015
Valproic Acd | 0.66 L/kg | 4.2 mL/min/kg | – | – | – | – | Vd ([1]; dog): 0.33 L/kg; clearance ([1]; dog): 3.03 mL/min/kg; fraction unbound ([1]; dog): 0.215; Vd ([1]; monkey): 0.25 L/kg; clearance ([1]; monkey): 4.2 mL/min/kg; fraction unbound ([1]; monkey): 0.22; fraction unbound ([1]; rat): 0.366
C[C@@H](O)C1C(=O)N2C(C(=O)O)=C(S[C@H]3CC(C(=O)N4CC[C@H](NC(=O)CN=C(N)N)C4)N(C)C3)[C@H](C)[C@H]12 (stereo not given in full) | 0.2 L/kg | 15.7 mL/min/kg | – | – | – | – | Vd ([1]; dog): 0.25 L/kg; clearance ([1]; dog): 3.96 mL/min/kg; fraction unbound ([1]; dog): 0.928; Vd ([1]; monkey): 0.18 L/kg; clearance ([1]; monkey): 1.7 mL/min/kg; fraction unbound ([1]; monkey): 0.85; fraction unbound ([1]; rat): 0.95
CN(c1nc2ccccc2s1)C1CCN(CC(O)COc2ccc(F)cc2)CC1 (stereo not given) | 5.8 L/kg | 35.9 mL/min/kg | – | – | – | – | fraction unbound ([1]; rat): 0.016
CC(=O)N[C@H]1[C@H]([C@H](O)[C@H](O)CO)OC(C(=O)O)=C[C@@H]1N=C(N)N | 0.8 L/kg | 31.7 mL/min/kg | – | – | – | – | –
C[C@@H](O)C1C(=O)N2C(C(=O)O)=C(S[C@@H]3CN[C@H](CNS(N)(=O)=O)C3)[C@H](C)[C@H]12 (stereo not given in full) | – | 35.7 mL/min/kg | – | – | – | – | clearance ([1]; dog): 4.7 mL/min/kg; fraction unbound ([1]; dog): 0.9; clearance ([1]; monkey): 7.7 mL/min/kg; fraction unbound ([1]; monkey): 0.94; fraction unbound ([1]; rat): 0.65
CC1(C)SC2C(NC(=O)C(NC(=O)N3CCNC3=O)c3ccccc3)C(=O)N2C1C(=O)O (stereo not given) | – | – | – | – | – | – | Vd ([1]; dog): 0.27 L/kg; clearance ([1]; dog): 2.8 mL/min/kg
C#CCN(C)[C@H](C)Cc1ccccc1 | – | – | – | – | – | – | Vd ([1]; dog): 9.46 L/kg; clearance ([1]; dog): 160 mL/min/kg; fraction unbound ([1]; rat): 0.31
[H]/N=C(\N)N1CCC[C@@H](CNC(=O)CC(NS(=O)(=O)c2ccc3ccccc3c2)C(=O)N(CC(=O)O)C2CC2)C1 (stereo not given in full) | 0.6 L/kg | – | – | – | – | – | Vd ([1]; dog): 0.64 L/kg; fraction unbound ([1]; dog): 0.52; Vd ([1]; monkey): 0.32 L/kg; fraction unbound ([1]; rat): 0.33
CC(C)=CCN1CC[C@@]2(C)c3cc(O)ccc3C[C@@H]1[C@@H]2C | – | – | – | – | – | – | Vd ([1]; monkey): 9.62 L/kg; clearance ([1]; monkey): 56.6 mL/min/kg
CCC#CC[C@H](C)[C@H](O)C#C[C@@H]1[C@H]2C/C(=C/COCCCC(=O)O)C[C@H]2C[C@H]1O | 1.5 L/kg | 170 mL/min/kg | – | – | – | – | Vd ([1]; monkey): 1.6 L/kg; clearance ([1]; monkey): 63.1 mL/min/kg
OC(CCN1CCCCC1)(c1ccccc1)C1CC2C=CC1C2 (stereo not given) | – | – | – | – | – | – | Vd ([1]; dog): 9.7 L/kg; clearance ([1]; dog): 27 mL/min/kg; fraction unbound ([1]; dog): 0.19; fraction unbound ([1]; rat): 0.31
O=C(CCCCCCC(O)=NO)Nc1ccccc1 | 1.6 L/kg | 130 mL/min/kg | – | – | – | – | fraction unbound ([1]; dog): 0.458
NC(N)=Nc1nc(CSCCC(N)=NS(N)(=O)=O)cs1 | 0.8 L/kg | 22 mL/min/kg | – | – | – | – | Vd ([1]; dog): 0.79 L/kg; clearance ([1]; dog): 8.6 mL/min/kg; fraction unbound ([1]; dog): 0.72; Vd ([1]; monkey): 2.1 L/kg; clearance ([1]; monkey): 15 mL/min/kg; fraction unbound ([1]; monkey): 0.13; fraction unbound ([1]; rat): 0.47
[H]/N=C(\N)c1ccc(C(=O)NC(Cc2ccc(O)cc2)C(=O)N2CCC(OCC(=O)O)CC2)cc1 (stereo not given) | 0.24 L/kg | – | – | – | – | – | Vd ([1]; dog): 0.75 L/kg; Vd ([1]; monkey): 0.29 L/kg
CC(C)C1CCC(C(=O)NC(Cc2ccccc2)C(=O)O)CC1 (stereo not given) | – | – | 1.4 h | 0.15 L/kg | 1.8 mL/min/kg | 1.5 h | –

Molecule | Vd ([1]; rat) | clearance ([1]; rat) | MRT [2] | Vd [2] | clearance [2] | half-life [2] | also measured
COc1ccccc1Oc1c(NS(=O)(=O)c2ccc(C)cn2)nc(-c2ccncc2)nc1OC | – | – | 8.8 h | 0.27 L/kg | 0.52 mL/min/kg | 7.2 h | –
N#CN | – | – | 0.8 h | 0.78 L/kg | 17 mL/min/kg | 0.43 h | –
Cc1[nH]c2ccccc2c1CCNCc1ccc(/C=C/C(O)=NO)cc1 | – | – | – | – | 10.2 mL/min/kg | 13.1 h | fraction unbound [2]: 0.1
CCCN[C@H]1CCc2nc(N)sc2C1 | – | – | 16.1 h | 7 L/kg | 7.2 mL/min/kg | 12.4 h | fraction unbound [2]: 0.85
O=C(O)c1cc(/N=N/c2ccc(S(=O)(=O)Nc3ccccn3)cc2)ccc1O | – | – | 6.8 h | 0.11 L/kg | 0.26 mL/min/kg | 7.6 h | fraction unbound [2]: 0.004
O=C(NC1CCN(CCCCC2(C(=O)NCC(F)(F)F)c3ccccc3-c3ccccc32)CC1)c1ccccc1-c1ccc(C(F)(F)F)cc1 | – | – | 31.2 h | 16.3 L/kg | 8.7 mL/min/kg | 39.7 h | fraction unbound [2]: 0.002
O=[N+]([O-])O[C@H]1CO[C@H]2[C@@H]1OC[C@H]2O | – | – | 2.3 h | 0.86 L/kg | 6.2 mL/min/kg | 1.9 h | –
C[C@@H](Oc1cc(-c2cnn(C3CCNCC3)c2)cnc1N)c1c(Cl)ccc(F)c1Cl | – | – | – | – | – | – | fraction unbound [2]: 0.09
Cn1c(=O)c2c(ncn2CC2OCCO2)n(C)c1=O | – | – | 2.5 h | 1.03 L/kg | 6.83 mL/min/kg | 1.66 h | –
CCC[S@+](O)CCCN(CC)C[C@@H](O)COc1ccc(C#N)cc1 | – | – | 2.65 h | 1.8 L/kg | 11.3 mL/min/kg | 2.4 h | –
Nc1nc(=O)c2ncn(CCC(CO)CO)c2[nH]1 | – | – | 2.4 h | 1.1 L/kg | 8.4 mL/min/kg | 2.1 h | –
COc1cc2c(cc1OC)CN(c1cc(N)c3cc(OC)c(OC)cc3n1)CC2 | – | – | 7.6 h | 6.3 L/kg | 14 mL/min/kg | 5.9 h | –
NCCCNc1ccc2c(CNCCO)nn3c4c(O)ccc(O)c4c(=O)c1c23 | – | – | 11 h | 12 L/kg | 18 mL/min/kg | 32 h | –
CCC1C(=O)N(C)c2cnc(Nc3ccc(C(=O)NC4CCN(C)CC4)cc3OC)nc2N1C1CCCC1 (stereo not given) | – | – | 31.3 h | 31.2 L/kg | 17.1 mL/min/kg | 40.1 h | –
C=CCN1CCCC1CNC(=O)c1cc2[nH]nnc2cc1OC (stereo not given) | – | – | 4 h | 1.6 L/kg | 6.6 mL/min/kg | 2.8 h | –
CCCCCc1cc(O)c2c(c1)OC(C)(C)c1ccc(C)cc1-2 | – | – | 15.9 h | 17 L/kg | 17.9 mL/min/kg | 25.5 h | –
CN1C2CCC1CC(=C1c3ccccc3CSc3ccccc31)C2 | – | – | 39.5 h | 11.8 L/kg | 4.98 mL/min/kg | 29.8 h | –
CN(C)CCN1C(=O)c2cccc3cc([N+](=O)[O-])cc(c23)C1=O | – | – | 5.6 h | 11.3 L/kg | 34.6 mL/min/kg | 28.7 h | –
Nc1nc2[nH]cnc2c(=S)[nH]1 | – | – | 3.13 h | 2.89 L/kg | 15.4 mL/min/kg | 24.4 h | –
N=C(N)NCCCC1NC(=O)CCSSCC(C(N)=O)NC(=O)C2CCCN2C(=O)C(Cc2c[nH]c3ccccc23)NC(=O)C(CC(=O)O)NC(=O)CNC1=O (stereo not given) ([Mpa]RGDWPC-NH2; disulfide 1-7; configuration not given here) | – | – | 2.45 h | 0.42 L/kg | 2.88 mL/min/kg | 2.12 h | –
CC(=O)Nc1ccc(C2=NNC(=O)CC2C)cc1 (stereo not given) | – | – | 88 h | 2.38 L/kg | 0.45 mL/min/kg | 70 h | fraction unbound [2]: 0.4
O=C(/C=C/c1ccc(O)c(O)c1)O[C@@H]1[C@H](O)C[C@@](O)(C(=O)O)C[C@H]1OC(=O)/C=C/c1ccc(O)c(O)c1 | – | – | 0.3 h | 0.63 L/kg | 34.6 mL/min/kg | 0.57 h | –
CO/N=C1\CN(c2nc3c(cc2F)c(=O)c(C(=O)O)cn3C2CC2)CC1CN (stereo not given) | – | – | 8.1 h | 3.52 L/kg | 7.2 mL/min/kg | 8.3 h | fraction unbound [2]: 0.3
C[C@H]1O[C@@H](n2cc(F)c(=O)[nH]c2=O)[C@H](O)[C@@H]1O | – | – | 0.46 h | 0.28 L/kg | 11 mL/min/kg | 0.35 h | –
CCN(CC)c1ccc2cc(C(=O)Nc3ccc4[nH]c(C(=O)N5C[C@@H](CCl)c6c5cc(OC(=O)Nc5ccccc5)c5[nH]cc(C)c65)cc4c3)oc2c1 | – | – | 0.51 h | 0.09 L/kg | 2.9 mL/min/kg | 0.48 h | –
COC(=O)c1ccc2c(C(=Nc3ccc(N(C)C(=O)CN4CCN(C)CC4)cc3)c3ccccc3)c(O)[nH]c2c1 | – | – | 12.6 h | 15 L/kg | 19.9 mL/min/kg | 9.5 h | fraction unbound [2]: 0.02
